This passage reports IC50 results from patent US9181273B2, “Morpholine-spirocyclic piperidine amides as modulators of ion channels” (Vertex Pharmaceuticals Incorporated, priority 2011, dated 2015).

Broadly, the IC50 is the concentration that gives 50% inhibition.

The target of the first experiment is human NaV subtype, like NaV 1.7 (Homo sapiens, UniProt Q15858). Nature of the experiment: E-VIPR optical membrane potential assay with electrical stimulation. Type of experiment: cell-based.
Chain of human NaV subtype, like NaV 1.7 (Q15858 whole entry): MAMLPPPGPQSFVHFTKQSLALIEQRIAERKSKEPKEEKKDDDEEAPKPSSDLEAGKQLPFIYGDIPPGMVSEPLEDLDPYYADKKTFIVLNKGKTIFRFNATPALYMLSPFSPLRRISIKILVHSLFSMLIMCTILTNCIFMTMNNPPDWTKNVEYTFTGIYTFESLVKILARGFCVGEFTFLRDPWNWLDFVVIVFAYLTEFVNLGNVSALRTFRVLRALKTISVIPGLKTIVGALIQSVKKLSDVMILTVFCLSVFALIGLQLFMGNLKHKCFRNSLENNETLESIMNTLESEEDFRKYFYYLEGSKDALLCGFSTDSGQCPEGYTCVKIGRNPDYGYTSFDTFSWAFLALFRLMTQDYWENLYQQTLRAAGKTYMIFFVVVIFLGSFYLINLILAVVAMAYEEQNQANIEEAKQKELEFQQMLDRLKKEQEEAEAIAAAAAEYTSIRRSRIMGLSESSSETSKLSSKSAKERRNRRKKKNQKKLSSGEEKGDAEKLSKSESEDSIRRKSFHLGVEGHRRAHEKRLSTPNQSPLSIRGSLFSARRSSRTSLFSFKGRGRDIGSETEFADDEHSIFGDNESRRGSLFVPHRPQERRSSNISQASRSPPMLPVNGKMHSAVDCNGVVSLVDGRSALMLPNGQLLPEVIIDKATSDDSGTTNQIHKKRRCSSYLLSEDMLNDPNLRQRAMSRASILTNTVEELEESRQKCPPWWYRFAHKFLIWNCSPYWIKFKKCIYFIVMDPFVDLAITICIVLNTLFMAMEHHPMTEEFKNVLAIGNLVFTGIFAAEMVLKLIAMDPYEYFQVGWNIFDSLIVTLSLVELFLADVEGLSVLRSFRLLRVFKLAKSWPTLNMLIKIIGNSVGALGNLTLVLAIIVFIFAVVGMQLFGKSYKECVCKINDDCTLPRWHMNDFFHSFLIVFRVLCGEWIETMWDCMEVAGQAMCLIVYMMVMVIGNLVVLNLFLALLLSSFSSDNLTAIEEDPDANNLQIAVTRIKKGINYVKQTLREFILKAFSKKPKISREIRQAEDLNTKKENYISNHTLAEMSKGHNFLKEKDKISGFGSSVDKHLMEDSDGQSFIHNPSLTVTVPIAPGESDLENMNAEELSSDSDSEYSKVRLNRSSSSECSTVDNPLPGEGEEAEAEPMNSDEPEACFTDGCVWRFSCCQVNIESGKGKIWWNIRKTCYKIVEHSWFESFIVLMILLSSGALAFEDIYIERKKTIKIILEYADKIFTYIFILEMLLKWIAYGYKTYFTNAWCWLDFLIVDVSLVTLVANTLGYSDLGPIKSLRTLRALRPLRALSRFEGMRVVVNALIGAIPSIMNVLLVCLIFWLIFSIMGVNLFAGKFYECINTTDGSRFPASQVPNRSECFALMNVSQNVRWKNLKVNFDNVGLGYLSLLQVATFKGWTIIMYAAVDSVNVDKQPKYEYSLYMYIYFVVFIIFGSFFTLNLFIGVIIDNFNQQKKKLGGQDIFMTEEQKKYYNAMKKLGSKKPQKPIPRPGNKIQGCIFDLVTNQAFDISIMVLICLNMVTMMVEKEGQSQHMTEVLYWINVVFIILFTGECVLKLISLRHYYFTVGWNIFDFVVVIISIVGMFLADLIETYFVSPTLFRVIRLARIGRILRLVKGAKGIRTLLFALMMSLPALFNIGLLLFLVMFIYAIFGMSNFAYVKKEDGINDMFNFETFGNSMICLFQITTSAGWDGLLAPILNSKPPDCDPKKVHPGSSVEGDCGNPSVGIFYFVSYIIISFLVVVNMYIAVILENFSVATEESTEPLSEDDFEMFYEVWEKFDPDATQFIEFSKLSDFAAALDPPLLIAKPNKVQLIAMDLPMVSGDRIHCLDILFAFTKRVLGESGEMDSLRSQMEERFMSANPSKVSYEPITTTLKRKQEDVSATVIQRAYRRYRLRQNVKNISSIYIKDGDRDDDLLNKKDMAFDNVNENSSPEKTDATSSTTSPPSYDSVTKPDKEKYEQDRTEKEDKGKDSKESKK
Conditions: not given
The source says: Sodium channels are voltage-dependent proteins that can be activated by inducing membrane voltage changes by applying electric fields. […] The instrument comprises a microtiter plate handler, an optical system for exciting the coumarin dye while simultaneously recording the coumarin and oxonol emissions, a waveform generator, a current- or voltage-controlled amplifier, and a device for inserting electrodes in well. Under integrated computer control, this instrument passes user-programmed electrical stimulus protocols to cells within the wells of the microtiter plate.
24 hours before the assay on E-VIPR, HEK cells expressing human NaV subtype, like NaV 1.7, are seeded in 384-well poly-lysine coated plates at 15,000-20,000 cells per well. Other subtypes are performed in an analogous mode in a cell line expressing the NaV of interest. […] Cells are grown in vented cap flasks, in 90% humidity and 10% CO2, to 100% confluence. They are usually split by trypsinization 1:10 or 1:20, depending on scheduling needs, and grown for 2-3 days before the next split.
To make the solution Add volume of 10% Pluronic F127 stock equal to volumes of CC2-DMPE+DiSBAC6(3). The order of preparation is first mix Pluronic and CC2-DMPE, then add DiSBAC6(3) while vortexing, then add Bath1+β-Cyclodextrin.
1) Pre-spot compounds (in neat DMSO) into compound plates. […] Final compound plate volume will be 80 μL (80-fold intermediate dilution from 1 μL DMSO spot; 160-fold final dilution after transfer to cell plate).
2) Prepare Hexyl Dye Solution.
3) Prepare cell plates. On the day of the assay, medium is aspirated and cells are washed three times with 100 μL of Bath1 Solution, maintaining 25 μL residual volume in each well.
4) Dispense 25 μL per well of Hexyl Dye Solution into cell plates. Incubate for 20-35 minutes at room temp or ambient conditions.
5) Dispense 80 μL per well of Bath1 into compound plates. Acid Yellow-17 (1 mM) is added and Potassium Chloride can be altered from 4.5 to 20 mM depending on the NaV subtype and assay sensitivity.
6) Wash cell plates three times with 100 μL per well of Bath1, leaving 25 μL of residual volume. Then transfer 25 uL per well from Compound Plates to Cell Plates. Incubate for 20-35 minutes at room temp/ambient condition
7) Read Plate on E-VIPR. Use the current-controlled amplifier to deliver stimulation wave pulses for typically 9 seconds and a scan rate of 400 Hz. A pre-stimulus recording is performed for 0.5 seconds to obtain the un-stimulated intensities baseline. The stimulatory waveform is applied for 9 seconds followed by 0.5 seconds of post-stimulation recording to examine the relaxation to the resting state. The stimulatory waveform of the electrical stimulation is specific for each cell type and can vary the magnitude, duration and frequency of the applied current to provide an optimal assay signal.
Data are analyzed and reported as normalized ratios of background-subtracted emission intensities measured in the 460 nm and 580 nm channels. Background intensities are then subtracted from each assay channel. Background intensities are obtained by measuring the emission intensities during the same time periods from identically treated assay wells in which there are no cells. The response as a function of time is then reported as the ratios obtained using the following formula: […]
The data is further reduced by calculating the initial (Ri) and final (Rf) ratios. These are the average ratio values during part or all of the pre-stimulation period, and during sample points during the stimulation period. The response to the stimulus R=Rf/Ri is then calculated and reported as a function of time.
Control responses are obtained by performing assays in the presence of a compound with the desired properties (positive control), such as tetracaine, and in the absence of pharmacological agents (negative control). Responses to the negative (N) and positive (P) controls are calculated as above. The compound antagonist activity A is defined as: […]
For `Cc1cc(C(=O)N2CCC3(CC2)CN(CC(F)(F)F)CC(c2cc[nH]n2)O3)ccc1OC(C)C` (centres unmarked) [Compound 211], the IC50 is less than 2000 nM.

Still in this experiment, the particulars now being: active against one or more sodium channels; assay and NaV subtype not specified for Table 3; read-out: IC50 Binned Activity Data.
As for `COCC1CN(C)CC2(CCN(C(=O)c3ccc(OC(C)C)c(C)c3)CC2)O1` (centres unmarked) [Compound 32], the half-maximal inhibitory concentration (IC50) is greater than 5000 nM. Same read-out and setting: the figure for `COCC1CN(c2cccc(C#N)c2)CC2(CCN(C(=O)c3ccc(OC(C)C)c(C)c3)CC2)O1` (centres unmarked) [Compound 228] is less than 2000 nM; for `Cc1cc(C(=O)N2CCC3(CC2)CN(CC(F)F)CC(c2[nH]ncc2C)O3)ccc1OC(C)C` (centres unmarked) [Compound 150] it is less than 2000 nM. Same read-out and setting: the figure for `COCC1CN(c2ncccn2)CC2(CCN(C(=O)c3ccc(OC(C)C)c(C)c3)CC2)O1` (centres unmarked) [Compound 120] is less than 2000 nM; for `COCC1CN(c2ncccn2)CC2(CCN(C(=O)c3ccccc3OC(F)F)CC2)O1` (centres unmarked) [Compound 164] it is greater than 5000 nM; for `COCC1CN(c2ccc(C#N)cc2)CC2(CCN(C(=O)c3ccc(OC(C)C)c(C)c3)CC2)O1` (centres unmarked) [Compound 70] it is less than 2000 nM.

Consider `CCN1CC(c2ccccc2)OC2(CCN(C(=O)c3ccc(OC(C)C)nc3)CC2)C1` (centres unmarked) [Compound 308], for which the IC50 was greater than 5000 nM.

As to `CC(C)(O)c1ccc(C(=O)N2CCC3(CC2)CN(CC#N)CC(c2ccccc2)O3)cc1` (centres unmarked) [Compound 275], the half-maximal inhibitory concentration (IC50) was greater than 5000 nM. Still for that read-out and setting: the figure for `COc1cc(C(=O)N2CCC3(CC2)CN(CC(F)F)CC(c2ccccn2)O3)cc(F)c1OC(C)C` (centres unmarked) [Compound 297] is less than 2000 nM. The same measure, in the same setting: the figure for `CC#CCN1CC(CC)OC2(CCN(C(=O)c3ccc(OCCC)c(C)c3)CC2)C1` (centres unmarked) [Compound 217] is less than 2000 nM; for `COc1cc(C(=O)N2CCC3(CC2)CN(CC#N)CC(c2ccccc2)O3)ccc1C(C)(C)O` (centres unmarked) [Compound 115] it is 2000 to 5000 nM; for `CC#CCN1CC(CC)OC2(CCN(C(=O)c3ccc(OC(C)C)c(Cl)c3)CC2)C1` (centres unmarked) [Compound 52] it is less than 2000 nM. For `CCN1CC(c2ccc(F)cc2)OC2(CCN(C(=O)c3ccc(OC(C)C)c(F)c3)CC2)C1` (centres unmarked) [Compound 259], the IC50 was less than 2000 nM. Still for that read-out and setting: the figure for `CC(C)Oc1ccc(C(=O)N2CCC3(CC2)CN(CC(F)F)CC(c2ccn(C)n2)O3)cc1F` (centres unmarked) [Compound 263] is less than 2000 nM.

Regarding `COCC1CN(C2CCC(C)CC2)CC2(CCN(C(=O)c3ccc(OC(C)C)c(C)c3)CC2)O1` (centres unmarked) [Compound 5], the IC50 was less than 2000 nM.

As to `Cc1nc(C(=O)N2CCC3(CC2)CN(CC#N)CC(c2ccccc2)O3)ccc1OC(C)C` (centres unmarked) [Compound 212], the IC50 is less than 2000 nM. Turning to `CC(C)Oc1ccc(C(=O)N2CCC3(CC2)CN(CC(F)F)CC(c2ccc(F)cc2)O3)cc1F` (centres unmarked) [Compound 244], the 50% inhibitory concentration (IC50) was less than 2000 nM. On the same count and under the same terms, the same measure for `COCC1CN(CC(C)C)CC2(CCN(C(=O)c3ccc(OC(C)C)c(C)c3)CC2)O1` (centres unmarked) [Compound 111]: less than 2000 nM; for `COc1cc(C(=O)N2CCC3(CC2)CN(CC(F)F)CC(c2ccccc2)O3)ccc1C(C)(C)O` (centres unmarked) [Compound 224]: less than 2000 nM; for `Cc1cc(C(=O)N2CCC3(CC2)CN(CC#N)CC(c2ccccc2)O3)ccc1OC(C)C` (centres unmarked) [Compound 283]: less than 2000 nM. Still for that read-out and setting: the figure for `Cc1cc(C(=O)N2CCC3(CC2)CN(CC(F)F)CC(c2ccccc2)O3)ccc1C(C)(C)O` (centres unmarked) [Compound 168] is less than 2000 nM; for `Cc1cc(C(=O)N2CCC3(CC2)CN(CC(F)F)CC(c2ccccn2)O3)ccc1OCCCO` (centres unmarked) [Compound 305] it is 2000 to 5000 nM. The same measure, in the same setting: the figure for `Cc1cnc(C2CN(C(C)(C)C)CC3(CCN(C(=O)c4ccc(OC(C)C)c(F)c4)CC3)O2)o1` (centres unmarked) [Compound 268] is 2000 to 5000 nM; for `CC(C)Oc1ccc(C(=O)N2CCC3(CC2)CN(CC(F)(F)F)CC(c2cc[nH]n2)O3)cc1F` (centres unmarked) [Compound 38] it is 2000 to 5000 nM. Regarding `CCN1CC(c2ccccc2)OC2(CCN(C(=O)c3ccc(OC(C)C)c(F)c3)CC2)C1` (centres unmarked) [Compound 227], the IC50 was less than 2000 nM. Same read-out and setting: the figure for `Cc1cc(C(=O)N2CCC3(CC2)CN(CC(F)(F)F)CC(c2ccccc2)O3)ccc1OCC(C)(C)O` (centres unmarked) [Compound 138] is less than 2000 nM; for `CCC1CN(c2ncccn2)CC2(CCN(C(=O)c3ccc(S(=O)(=O)C(C)C)c(C)c3)CC2)O1` (centres unmarked) [Compound 238] it is 2000 to 5000 nM; for `COCC1CN(c2ccccc2)CC2(CCN(C(=O)c3ccc(OC(C)C)c(C)c3)CC2)O1` (centres unmarked) [Compound 286] it is less than 2000 nM. Still for that read-out and setting: the figure for `COCC1CN(CC2CCOCC2)CC2(CCN(C(=O)c3ccc(OC(C)C)c(C)c3)CC2)O1` (centres unmarked) [Compound 134] is greater than 5000 nM; for `CC#CCN1CC(CC)OC2(CCN(C(=O)c3ccc(OCC)c(C)c3)CC2)C1` (centres unmarked) [Compound 242] it is 2000 to 5000 nM; for `Cc1cc(C(=O)N2CCC3(CC2)CN(CC(F)(F)F)CC(C(C)(C)O)O3)ccc1OC(C)C` (centres unmarked) [Compound 127] it is 2000 to 5000 nM. Same read-out and setting: the same measure for `CCOc1ccc(C(=O)N2CCC3(CC2)CN(CC)CC(c2ccccc2)O3)cc1CO` (centres unmarked) [Compound 145]: greater than 5000 nM; for `CC(C)Oc1ccc(C(=O)N2CCC3(CC2)CN(CC(F)F)CC(c2cc[nH]n2)O3)cc1F` (centres unmarked) [Compound 226]: 2000 to 5000 nM. Regarding `CCC1CN(c2ncccn2)CC2(CCN(C(=O)c3ccc(OC(C)C)c(C)c3)CC2)O1` (centres unmarked) [Compound 236], the 50% inhibitory concentration (IC50) is less than 2000 nM. With `COc1cc(C(=O)N2CCC3(CC2)CN(CC(F)F)CC(c2cc[nH]n2)O3)ccc1OC(C)C` (centres unmarked) [Compound 210], the IC50 was greater than 5000 nM. On the same count and under the same terms, the same measure for `COc1cc(C(=O)N2CCC3(CC2)CN(CC(F)F)CC(c2cccc(C)n2)O3)ccc1OC(C)C` (centres unmarked) [Compound 253]: 2000 to 5000 nM. As to `COC(=O)c1ccnc(N2CC(CO)OC3(CCN(C(=O)c4ccc(OC(C)C)c(C)c4)CC3)C2)n1` (centres unmarked) [Compound 36], the concentration for half-maximal inhibition (IC50) is greater than 5000 nM. The same measure, in the same setting: the figure for `Cc1cc(C2CN(CC(F)(F)F)CC3(CCN(C(=O)c4ccc(OC(C)C)c(F)c4)CC3)O2)n[nH]1` (centres unmarked) [Compound 87] is 2000 to 5000 nM; for `COCC1CN(c2cccc(C)n2)CC2(CCN(C(=O)c3ccc(OC(C)C)c(C)c3)CC2)O1` (centres unmarked) [Compound 16] it is less than 2000 nM; for `CC(C)(O)c1ccc(C(=O)N2CCC3(CC2)CN(CC(F)(F)F)CC(c2ccccc2)O3)cc1F` (centres unmarked) [Compound 257] it is less than 2000 nM. The same measure, in the same setting: the figure for `CC(C)(C)S(=O)(=O)c1ccc(C(=O)N2CCC3(CC2)CN(CC(F)F)CC(c2ccc(F)cc2)O3)cc1` (centres unmarked) [Compound 269] is 2000 to 5000 nM; for `CCN1CC(c2ncc(C)s2)OC2(CCN(C(=O)c3ccc(OC(C)C)c(OC)c3)CC2)C1` (centres unmarked) [Compound 76] it is 2000 to 5000 nM; for `Cc1cc(C(=O)N2CCC3(CC2)CN(CC(F)F)CC(c2ncco2)O3)ccc1OC(C)C` (centres unmarked) [Compound 209] it is less than 2000 nM. With `CC(C)Oc1ccc(C(=O)N2CCC3(CC2)CN(CC(F)(F)F)CC(c2ccccc2)O3)cc1CO` (centres unmarked) [Compound 194], the IC50 was less than 2000 nM. With `COc1cc(C(=O)N2CCC3(CC2)CN(CC(F)(F)F)CC(c2ccccc2)O3)ccc1S(C)(=O)=O` (centres unmarked) [Compound 172], the IC50 was greater than 5000 nM.

Consider `CC(C)(O)Cc1ccc(C(=O)N2CCC3(CC2)CN(CC(F)(F)F)CC(c2ccccc2)O3)cc1` (centres unmarked) [Compound 133], for which the IC50 is less than 2000 nM. Consider `CCC1CN(CC2CC2)CC2(CCN(C(=O)c3ccc(OC(C)C)c(C)c3)CC2)O1` (centres unmarked) [Compound 46], for which the 50% inhibitory concentration (IC50) is less than 2000 nM. Same read-out and setting: the same measure for `CCN1CC(c2ccccc2)OC2(CCN(C(=O)c3ccc(OC(C)C)c(CO)c3)CC2)C1` (centres unmarked) [Compound 166]: 2000 to 5000 nM; for `CCC1COC2(CCN(C(=O)c3ccc(OC(C)C)c(C)c3)CC2)CN1CC` (centres unmarked) [Compound 40]: greater than 5000 nM.

Regarding `CCOc1cc(C(=O)N2CCC3(CC2)CN(CC)CC(c2ccccc2)O3)ccc1CO` (centres unmarked) [Compound 203], the IC50 fell in the range of 2000 to 5000 nM. Turning to `COCC1CN(Cc2ccccn2)CC2(CCN(C(=O)c3ccc(OC(C)C)c(C)c3)CC2)O1` (centres unmarked) [Compound 14], the 50% inhibitory concentration (IC50) was greater than 5000 nM. On the same count and under the same terms, the figure for `COCC1CN(Cc2cncnc2)CC2(CCN(C(=O)c3ccc(OC(C)C)c(C)c3)CC2)O1` (centres unmarked) [Compound 69] is greater than 5000 nM.
